Measured values reported in paper PMC6591010 (Molecular cell, 2019).

Experiments:
[1] = target: Ct Smc4hd–Brn1C (Thermochaetoides thermophila, UniProt G0S2G2, DEL467-1366/Q421L); assay: biochemical
[2] = target: Sc condensin holocomplex (Saccharomyces cerevisiae, UniProt P38989+Q12267); details: with or without DNA

Chain of Ct Smc4hd–Brn1C (G0S2G2 264-466 Q421L): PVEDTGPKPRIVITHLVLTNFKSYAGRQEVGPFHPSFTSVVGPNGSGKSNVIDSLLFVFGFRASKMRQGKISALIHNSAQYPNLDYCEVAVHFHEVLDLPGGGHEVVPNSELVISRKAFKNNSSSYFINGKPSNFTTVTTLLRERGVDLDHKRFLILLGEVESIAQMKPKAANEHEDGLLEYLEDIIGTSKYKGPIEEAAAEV
Chain of Ct Smc4hd–Brn1C (G0S2G2 1367-1542, stated change not applied): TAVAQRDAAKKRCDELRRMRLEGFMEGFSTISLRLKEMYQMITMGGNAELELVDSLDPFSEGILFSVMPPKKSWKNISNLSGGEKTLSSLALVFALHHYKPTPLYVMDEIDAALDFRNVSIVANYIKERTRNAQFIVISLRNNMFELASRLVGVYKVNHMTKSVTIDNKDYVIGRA
Chain of Ct Smc4hd–Brn1C (G0SBJ6 765-898 partner): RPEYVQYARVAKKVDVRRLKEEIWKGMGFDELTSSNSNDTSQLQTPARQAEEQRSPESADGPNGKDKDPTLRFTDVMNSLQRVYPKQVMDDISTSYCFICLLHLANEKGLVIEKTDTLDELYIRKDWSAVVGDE

- Kd [1]: 18.4 µM
SMILES: Nc1ncnc2c1ncn2[C@@H]1O[C@H](COP(=O)(O)OP(=O)(O)OP(=O)(O)O)[C@@H](O)[C@H]1O [ATP]
- ATP hydrolysis assay [2]: basal and DNA-stimulated ATPase activities of condensin holocomplexes
